Laboratory results taken from PMC4098076 (Nature, 2014).

Target: T1, aryl hydrocarbon receptor (AhR) (Mus musculus, UniProt P30561)
T1 sequence (P30561 10-848): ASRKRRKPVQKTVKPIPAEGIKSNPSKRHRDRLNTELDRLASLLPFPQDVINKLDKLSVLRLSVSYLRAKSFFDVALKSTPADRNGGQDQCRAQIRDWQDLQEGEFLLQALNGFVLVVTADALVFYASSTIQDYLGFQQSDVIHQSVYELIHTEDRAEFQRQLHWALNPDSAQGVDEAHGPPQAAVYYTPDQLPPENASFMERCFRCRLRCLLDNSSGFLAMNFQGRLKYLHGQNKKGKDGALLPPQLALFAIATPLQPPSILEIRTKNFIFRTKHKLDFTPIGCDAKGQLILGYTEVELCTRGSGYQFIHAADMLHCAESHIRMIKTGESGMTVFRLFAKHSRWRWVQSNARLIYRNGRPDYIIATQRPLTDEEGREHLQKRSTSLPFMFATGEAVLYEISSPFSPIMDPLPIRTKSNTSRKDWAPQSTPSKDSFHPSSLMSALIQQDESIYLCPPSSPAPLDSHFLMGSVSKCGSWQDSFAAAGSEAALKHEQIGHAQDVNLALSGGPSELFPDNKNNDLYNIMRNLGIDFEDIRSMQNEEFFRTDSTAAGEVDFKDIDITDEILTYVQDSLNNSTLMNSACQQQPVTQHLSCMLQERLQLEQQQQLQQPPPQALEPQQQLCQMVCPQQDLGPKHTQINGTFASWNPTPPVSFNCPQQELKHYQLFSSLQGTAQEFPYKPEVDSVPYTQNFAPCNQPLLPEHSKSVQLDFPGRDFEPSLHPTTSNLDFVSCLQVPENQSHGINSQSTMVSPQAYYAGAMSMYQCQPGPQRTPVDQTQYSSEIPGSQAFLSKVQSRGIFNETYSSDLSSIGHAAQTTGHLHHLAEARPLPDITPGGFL
Experiment: radioligand competition with [3H]TCDD
Format: binding

Ki: 21.6 µM
Structure (SMILES): Nc1ccccc1C(=O)C[C@H](N)C(=O)O [L-kynurenine]
